Data reported in BindingDB's records for doi:10.1016/s0960-894x(03)00254-3 (Merck Research Laboratories, 2003).
pIC50: −log10 of the molar value.

Experiment: Ability to bind to the […] integrin expressed as inhibitory concentration against ADP-stimulated aggregation of human gel-filtered platelets

pIC50, < 5.52:
O=C(O)C[C@H](NC(=O)CN1CC[C@H](CCc2ccc3c(n2)NCCC3)C1=O)c1cccnc1 [3-(2-{(S)-2-Oxo-3-[2-(5,6,7,8-tetrahydro-[1,8]naphthyridin-2-yl)-ethyl]-pyrrolidin-1-yl}-acetylamino)-3-(S)-pyridin-3-yl-propionic acid]
O=C(O)C[C@H](NC(=O)Cc1cccc(CCc2ccc3c(n2)NCCC3)c1)c1cccnc1 [3-(S)-Pyridin-3-yl-3-(2-{3-[2-(5,6,7,8-tetrahydro-[1,8]naphthyridin-2-yl)-ethyl]-phenyl}-acetylamino)-propionic acid]
O=C(O)C[C@H](NC(=O)Cn1c(-c2ccccc2)c(Cl)nc(NCc2ccc3c(n2)NCCC3)c1=O)c1cccc(F)c1 [(S)-3-(2-{5-Chloro-2-oxo-6-phenyl-3-[(5,6,7,8-tetrahydro-[1,8]naphthyridin-2-ylmethyl)-amino]-2H-pyrazin-1-yl}-acetylamino)-3-(3-fluoro-phenyl)-propionic acid]
O=C(O)C[C@H](NC(=O)Cn1c(C2CC2)c(Cl)nc(NCc2ccc3c(n2)NCCC3)c1=O)c1ccc2c(c1)OCC2 [(S)-3-(2-{5-Chloro-6-cyclopropyl-2-oxo-3-[(5,6,7,8-tetrahydro-[1,8]naphthyridin-2-ylmethyl)-amino]-2H-pyrazin-1-yl}-acetylamino)-3-(2,3-dihydro-benzofuran-6-yl)-propionic acid]
O=C(O)C[C@H](NC(=O)Cn1c(C2CC2)c(Cl)nc(NCc2ccc3c(n2)NCCC3)c1=O)c1cccc(F)c1 [(S)-3-(2-{5-Chloro-6-cyclopropyl-2-oxo-3-[(5,6,7,8-tetrahydro-[1,8]naphthyridin-2-ylmethyl)-amino]-2H-pyrazin-1-yl}-acetylamino)-3-(3-fluoro-phenyl)-propionic acid]
O=C(O)C[C@H](NC(=O)Cn1c(C2CC2)c(Cl)nc(NCc2ccc3c(n2)NCCC3)c1=O)c1cccnc1 [(S)-3-(2-{5-Chloro-6-cyclopropyl-2-oxo-3-[(5,6,7,8-tetrahydro-[1,8]naphthyridin-2-ylmethyl)-amino]-2H-pyrazin-1-yl}-acetylamino)-3-pyridin-3-yl-propionic acid]
O=C(O)C[C@H](NC(=O)Cn1c(C2CC2)c(Cl)nc(NCc2ccc3c(n2)NCCC3)c1=O)c1cnc2ccccc2c1 [(S)-3-(2-{5-Chloro-6-cyclopropyl-2-oxo-3-[(5,6,7,8-tetrahydro-[1,8]naphthyridin-2-ylmethyl)-amino]-2H-pyrazin-1-yl}-acetylamino)-3-quinolin-3-yl-propionic acid]
CCc1c(Cl)nc(NCc2ccc3c(n2)NCCC3)c(=O)n1CC(=O)N[C@@H](CC(=O)O)c1cccc(F)c1 [(S)-3-(2-{5-Chloro-6-ethyl-2-oxo-3-[(5,6,7,8-tetrahydro-[1,8]naphthyridin-2-ylmethyl)-amino]-2H-pyrazin-1-yl}-acetylamino)-3-(3-fluoro-phenyl)-propionic acid]
Cc1c(Cl)nc(NCc2ccc3c(n2)NCCC3)c(=O)n1CC(=O)N[C@@H](CC(=O)O)c1cccc(F)c1 [(S)-3-(2-{5-Chloro-6-methyl-2-oxo-3-[(5,6,7,8-tetrahydro-[1,8]naphthyridin-2-ylmethyl)-amino]-2H-pyrazin-1-yl}-acetylamino)-3-(3-fluoro-phenyl)-propionic acid]
O=C(O)C[C@H](NC(=O)Cn1c(C2CC2)cnc(NCc2ccc3c(n2)NCCC3)c1=O)c1cccc(F)c1 [(S)-3-(2-{6-Cyclopropyl-2-oxo-3-[(5,6,7,8-tetrahydro-[1,8]naphthyridin-2-ylmethyl)-amino]-2H-pyrazin-1-yl}-acetylamino)-3-(3-fluoro-phenyl)-propionic acid]
O=C(O)C[C@H](NC(=O)Cn1c(C2CC2)cnc(NCc2ccc3c(n2)NCCC3)c1=O)c1cccnc1 [(S)-3-(2-{6-Cyclopropyl-2-oxo-3-[(5,6,7,8-tetrahydro-[1,8]naphthyridin-2-ylmethyl)-amino]-2H-pyrazin-1-yl}-acetylamino)-3-pyridin-3-yl-propionic acid]
CCc1cnc(NCc2ccc3c(n2)NCCC3)c(=O)n1CC(=O)N[C@@H](CC(=O)O)c1cccc(F)c1 [(S)-3-(2-{6-Ethyl-2-oxo-3-[(5,6,7,8-tetrahydro-[1,8]naphthyridin-2-ylmethyl)-amino]-2H-pyrazin-1-yl}-acetylamino)-3-(3-fluoro-phenyl)-propionic acid]
Cc1cnc(NCc2ccc3c(n2)NCCC3)c(=O)n1CC(=O)N[C@@H](CC(=O)O)c1cccc(F)c1 [(S)-3-(3-Fluoro-phenyl)-3-(2-{6-methyl-2-oxo-3-[(5,6,7,8-tetrahydro-[1,8]naphthyridin-2-ylmethyl)-amino]-2H-pyrazin-1-yl}-acetylamino)-propionic acid]
O=C(O)C[C@H](NC(=O)Cn1c(C2CC2)cnc(NCc2ccc3c(n2)NCCC3)c1=O)c1ccc2c(c1)OCO2 [(S)-3-Benzo[1,3]dioxol-5-yl-3-(2-{6-cyclopropyl-2-oxo-3-[(5,6,7,8-tetrahydro-[1,8]naphthyridin-2-ylmethyl)-amino]-2H-pyrazin-1-yl}-acetylamino)-propionic acid]
O=C(O)C[C@H](NC(=O)CNC(=O)CCCc1ccc2c(n1)NCCC2)c1cccnc1 [(S)-3-Pyridin-3-yl-3-[2-(4-5,6,7,8-tetrahydro-[1,8]naphthyridin-2-yl-butyrylamino)-acetylamino]-propionic acid]

Experiment: Ability to bind to the alpha IIb beta-3 integrin expressed as inhibitory concentration against ADP-stimulated aggregation of human gel-filtered platelets

pIC50, < 5.52:
O=C(O)C[C@H](NC(=O)CN1CCCC(CCc2ccc3c(n2)NCCC3)C1=O)c1cccnc1 (stereo partly drawn) [3-(2-{2-Oxo-3-[2-(5,6,7,8-tetrahydro-[1,8]naphthyridin-2-yl)-ethyl]-piperidin-1-yl}-acetylamino)-3-(S)-pyridin-3-yl-propionic acid]
O=C(O)C[C@H](NC(=O)Cn1cccc(NCc2ccc3c(n2)NCCC3)c1=O)c1cccnc1 [3-(2-{2-Oxo-3-[(5,6,7,8-tetrahydro-[1,8]naphthyridin-2-ylmethyl)-amino]-2H-pyridin-1-yl}-acetylamino)-3-(S)-pyridin-3-yl-propionic acid]
CCCc1ccc(NCc2ccc3c(n2)NCCC3)c(=O)n1CC(=O)N[C@@H](CC(=O)O)c1cccnc1 [3-(2-{2-Oxo-6-propyl-3-[(5,6,7,8-tetrahydro-[1,8]naphthyridin-2-ylmethyl)-amino]-2H-pyridin-1-yl}-acetylamino)-3-(S)-pyridin-3-yl-propionic acid]
O=C(O)C[C@H](NC(=O)Cn1c(C2CC2)ccc(NCc2ccc3c(n2)NCCC3)c1=O)c1cccnc1 [3-(2-{6-Cyclopropyl-2-oxo-3-[(5,6,7,8-tetrahydro-[1,8]naphthyridin-2-ylmethyl)-amino]-2H-pyridin-1-yl}-acetylamino)-3-(S)-pyridin-3-yl-propionic acid]
Cc1cnc(NCc2ccc3c(n2)NCCC3)c(=O)n1CC(=O)N[C@@H](CC(=O)O)c1cccnc1 [3-(2-{6-Methyl-2-oxo-3-[(5,6,7,8-tetrahydro-[1,8]naphthyridin-2-ylmethyl)-amino]-2H-pyrazin-1-yl}-acetylamino)-3-(S)-pyridin-3-yl-propionic acid]
Cc1ccc(NCc2ccc3c(n2)NCCC3)c(=O)n1CC(=O)N[C@@H](CC(=O)O)c1cccnc1 [3-(2-{6-Methyl-2-oxo-3-[(5,6,7,8-tetrahydro-[1,8]naphthyridin-2-ylmethyl)-amino]-2H-pyridin-1-yl}-acetylamino)-3-(S)-pyridin-3-yl-propionic acid]
O=C(O)C[C@H](NC(=O)Cn1c(C2CC2)ccc(NCc2ccc3c(n2)NCCC3)c1=O)c1ccc2c(c1)OCC2 [(S)-3-(2-{6-Cyclopropyl-2-oxo-3-[(5,6,7,8-tetrahydro-[1,8]naphthyridin-2-ylmethyl)-amino]-2H-pyridin-1-yl}-acetylamino)-3-(2,3-dihydro-benzofuran-6-yl)-propionic acid]
O=C(O)C[C@H](NC(=O)Cn1c(C2CC2)ccc(NCc2ccc3c(n2)NCCC3)c1=O)c1cccc(F)c1 [(S)-3-(2-{6-Cyclopropyl-2-oxo-3-[(5,6,7,8-tetrahydro-[1,8]naphthyridin-2-ylmethyl)-amino]-2H-pyridin-1-yl}-acetylamino)-3-(3-fluoro-phenyl)-propionic acid]
C#C[C@H](CC(=O)O)NC(=O)Cn1c(C2CC2)ccc(NCc2ccc3c(n2)NCCC3)c1=O [(S)-3-(2-{6-Cyclopropyl-2-oxo-3-[(5,6,7,8-tetrahydro-[1,8]naphthyridin-2-ylmethyl)-amino]-2H-pyridin-1-yl}-acetylamino)-pent-4-ynoic acid]
